Test results reported in patent US6849601B1 (priority 1998, dated 2005).
Counter-ions that a name gives are not always drawn.

Columns and labels:
α2-adrenoceptors = tested on: α2-adrenoceptors; set-up: species or system rat
[1] = tested on: bisected rat prostatic vas deferens

Compound: NC[C@H](O)c1ccc(O)c(O)c1 [noradrenaline, (−)-noradrenaline bitartrate]
- −log IC50 of noradrenaline for inhibition of the response to electrical stimulation (α2-adrenoceptors): 5.96±0.052

Compound: COc1cc2nc(N3CCN(C(=O)c4ccco4)CC3)nc(N)c2cc1OC [prazosin, prazosin hydrochloride]
- effect on second phase of the contraction [1]: inhibited

Compound: Cc1ccc(C(=O)Nc2ccc(S(=O)(=O)O)c3cc(S(=O)(=O)O)cc(S(=O)(=O)O)c23)cc1NC(=O)c1cccc(NC(=O)Nc2cccc(C(=O)Nc3cc(C(=O)Nc4ccc(S(=O)(=O)O)c5cc(S(=O)(=O)O)cc(S(=O)(=O)O)c45)ccc3C)c2)c1 [suramin]
- effect on initial phase of the contraction ([1]; 0.3 mM): sensitive

Compound: NC1=N[C@H](O)[C@H]2[C@H]3O[C@]4(O)O[C@@H]([C@@H](O)[C@@]2(N1)[C@@H]4O)[C@]3(O)CO [tetrodotoxin]
- effect on contractions evoked by field stimulation [1]: abolished

Compound: CCLIPACRRNHKKFC [truncated ρ-TIA]
- selective β1-adrenoceptor antagonist activity (β1-adrenoceptor): inactive
